According to US8129527B2, “Analogs of dehydrophenylahistins and their therapeutic use” (Nereus Pharmacuticals, Inc., priority 2006, dated 2012):
In brackets after ≈: the same amount, converted by molar mass. Like-named read-outs stand apart in the source and are kept apart here. Marks after values point to notes of the source that are not given here.

Tests used:
MAP-rich microtubules = assay: Microtubule mean length distributions, transmission electron microscopy; assay type: biochemical, bovine; details: in words
Experimental: Transmission electron microscopy was used to determine the mean length distribution of microtubules in the absence or presence of tested agent. At 75 minutes and prior to sedimentation, 10 μl aliquots from the polymer mass experiments were fixed by dilution into 290 μl PEM100-buffered 0.2% glutaraldehyde. Thirty microliters of fixed sample was settled onto formvar-coated 150 ICG mesh electron microscope grids for 90 seconds. Excess sample was wicked off with Whatman filter paper. Thirty microliters of cytochrome C (1 mg/ml) was applied for 30 seconds to enhance protofilament resolution and facilitate negative staining. Uranyl acetate (1.5%) was applied for 20 seconds and the excess was wicked off Grids were viewed in a Jeol electron microscope-1200 EX11 at 2000× and 30,000× magnification. The Zeiss MOPIII was used to determine microtubule length distributions and mean lengths for at least 100 microtubules per sample.

[1] = system: MCF7 human breast carcinoma cells; assay: Mitotic progression (mitotic index); assay type: cell-based; details: 20 hours, read-out: Mitotic block Ave. IC50 ± sd
Experimental: The fraction of cells in mitosis at a given drug concentration (mitotic index) was determined in the breast cancer cell line MCF7. Cells were plated at a density of 3×10^4 cells/ml in six-well plates. After 24 hours, cells were incubated in the absence or presence of drug over a range of concentrations (1 nM to 1 μM) for 20 hours. […] Cells were fixed with 10% formalin in PBS overnight at 37° C., permeabilized in methanol for 10 minutes, and stained with 4,6-diamidino-phenylindole (DAPI) to visualize nuclei. Stained cells were spread on coverslips in Vectashield mounting media (Burlingame, Calif.) and sealed onto slides with nail polish. Fluorescence microscopy was used to determine mitotic indices.

[2] = system: MCF7 cells, GFP-alpha-tubulin; assay: Analysis of microtubule dynamics, time-lapse microscopy; assay type: cell-based, human
Aspergillus fumigatus = assay: Antifungal susceptibility testing, broth dilution (MIC/MFC); assay type: cell-based; details: Aspergillus fumigatus; for MIC: read-out: MIC
In short: (§1)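 Tested against two isolates per species (one for C. glabrata). After MIC, fungicidal concentration determined by plating 0.1 μl from MIC and each higher concentration.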

Candida albicans = assay: as above; assay type: cell-based; details: Candida albicans; C. albicans 90028; read-out: MIC
In short: as §1

Candida glabrata = assay: as above; assay type: cell-based; details: Nakaseomyces glabratus; C. glabrata; read-out: MIC
In short: as §1

[3] = system: MES-SA/Dx5 (Taxol Resistant) human uterine sarcoma; assay: Drug resistant cell line pair, cytotoxicity (Example 10B); assay type: cell-based
Source text: (§2) 1) Human Uterine Sarcoma Tumor Cell Line Pair: MES-SA (Taxol Sensitive) and MES-SA/Dx5 (Taxol Resistant).

[4] = system: MES-SA (Taxol Sensitive) human uterine sarcoma; assay: as above; assay type: cell-based
Source text: as §2

[5] = system: B16-F10 (murine melanoma); assay: Tumor panel screen cytotoxicity (Example 10A); assay type: cell-based
Source text: (§3) Cells were maintained at subconfluent densities in their respective culture media.

[6] = system: PC3 (human prostate tumor); assay: Tumor panel screen cytotoxicity (Example 10A); assay type: cell-based; details: PC-3 Prostate
Source text: as §3

[7] = system: CCD-27sk (normal human fibroblast); assay: Tumor panel screen cytotoxicity (Example 10A); assay type: cell-based; details: Homo sapiens; CCD-27sk Fibroblast
Source text: as §3

[8] = system: OVCAR-3 (human ovarian tumor); assay: Tumor panel screen cytotoxicity (Example 10A); assay type: cell-based; details: OVCAR-3 Ovary
Source text: as §3

HT29 (human colon tumor) = assay: Tumor panel screen cytotoxicity (Example 10A); assay type: cell-based; details: HT-29 Colon
Source text: as §3

[9] = system: MDA-MB-231 (human breast tumor); assay: Tumor panel screen cytotoxicity (Example 10A); assay type: cell-based; details: MDA-MB-231 Breast
Source text: as §3

[10] = Tumor panel screen cytotoxicity (Example 10A); assay type: cell-based, human; details: human, CCD-27sk normal fibroblast cells; CCD-27sk Fibroblast; maximum cytotoxic effect
Source text: as §3

[11] = system: NCI-H292 (human non-small cell lung tumor); assay: Tumor panel screen cytotoxicity (Example 10A); assay type: cell-based
Source text: as §3

[12] = system: HL-60 (Mitoxantrone-Sensitive) human acute promyelocytic leukemia; assay: Drug resistant cell line pair, cytotoxicity (Example 10B); assay type: cell-based; details: HL-60 Sensitive
Source text: (§4) 2) Human Acute Promyelocytic Leukemia Cell Line Pair: HL-60 (Mitoxantrone-Sensitive) and HL-60/MX-2 (Mitoxantrone-Resistant)

MCF-7 human breast tumor = assay: MCF-7 Human Breast Tumor Xenograft Model; assay type: in vivo, nude mice; details: in combination with taxotere
Experimental: Animals used were (exceptions are indicated for individual studies): female nude mice (nu/nu) between 5 and 6 weeks of age (˜20 g, Harlan); group size was 9-10 mice per group unless otherwise indicated.
(§5) Selected novel compounds were administered as monotherapy via the intraperitoneal (i.p.) route at the doses indicated for the individual study; for the combination studies the selected reference chemotherapy agents were injected 15-30 min prior to the compound.
(§6) Saline dilutions are used to achieve the injection concentrations used for the reference compounds.
Female nude mice (˜20 g) were implanted s.c. with 21-day release estrogen (0.25 mg) pellets 24 hours prior to the s.c. implantation with MCF-7 tumor fragments (harvested from s.c. tumors in nude mice hosts). The study then proceeded as described for the HT-29 model, using taxotere as the standard chemotherapy agent.
In this model unless otherwise noted for the individual study, the novel compounds were injected via the intraperitoneal route daily on Days 1-5, inclusive (qdx5); taxotere was administered intravenously on Days 1, 3 and 5 (qodx3).
The doses of the compounds were administered on Days 1, 2, 3, 4, and 7; Taxotere was administered on Days 1, 3 and 7.

HuVEC = assay: Action on microtubule function, α-tubulin staining; details: 2 μM, thirty minutes exposure
HT-29 human colon tumor = assay: HT-29 Human Colon Tumor Xenograft Model; assay type: in vivo
Experimental: as §5, §6
Animals were implanted subcutaneously (s.c.) by trocar with fragments of HT-29 tumors harvested from s.c. growing tumors in nude mice hosts. When the tumor size reached 5 mm×5 mm (about 10-17 days) the animals were matched into treatment and control groups. Mice were weighed twice weekly and tumor measurements were obtained using calipers twice weekly, starting on Day 1. The tumor measurements were converted to estimated mg tumor weight using the formula (W^2×L)/2. When the estimated tumor weight of the control group reached an average of 1000 mg the mice were weighed, sacrificed and the tumor removed.

[13] = system: HL-60/MX-2 (Mitoxantrone-Resistant); assay: Drug resistant cell line pair, cytotoxicity (Example 10B); assay type: cell-based, human; details: Homo sapiens, HL60/MX2; HL-60 Resistant (HL-60/MX-2)
Source text: as §4

[14] = Table 28, concentration effecting 25% of the maximal mitotic block
[15] = Table 29, concentration effecting 50% of the maximal mitotic block

COc1ccc(/C=C\c2cc(OC)c(OC)c(OC)c2)cc1O [CA4, Combretastatin A4]
MT nucleation (MAP-rich microtubules): did not affect MT nucleation | IC50 [1]: 5.4 ± 0.7 nM | % time spent, Attenuation [2, 14]: 39.50% | % time spent, Growth [2, 14]: 35.31% | % time spent, Shortening [2, 14]: 25.19% | Freq. of Catastrophe [2, 14]: 1.52 min⁻¹ | Freq. of Rescue [2, 14]: 1.90 min⁻¹ | Mean duration, Attenuation [2, 14]: 0.45 min | Mean duration, Growth [2, 14]: 0.27 min | Mean duration, Shortening [2, 14]: 0.21 min | Mean rates, Growth [2, 14]: 10.59 μm/min | Mean rates, Shortening [2, 14]: 40.21 μm/min | Dyn. ([2]; Table 28, dynamicity, concentration effecting 25% of the maximal mitotic block): 13.87 μm/min | % time spent, Attenuation [2, 15]: 36.23% | % time spent, Growth [2, 15]: 43.64% | % time spent, Shortening [2, 15]: 20.13% | Dynamicity [2, 15]: 10.91 μm/min | Freq. of Catastrophe [2, 15]: 1.09 min⁻¹ | Freq. of Rescue [2, 15]: 2.79 min⁻¹ | Mean duration, Attenuation [2, 15]: 0.55 min | Mean duration, Growth [2, 15]: 0.33 min | Mean duration, Shortening [2, 15]: 0.22 min | Mean rates, Growth [2, 15]: 11.21 μm/min | Mean rates, Shortening [2, 15]: 29.88 μm/min | MT dynamic instability ([2]; concentrations effecting 25% or 50% of maximal mitotic block): did not have a measurable effect on MT dynamic instability

CC(C)(C)c1[nH]cnc1/C=C1\NC(=O)[C@H](Cc2ccccc2)NC1=O [t-butyl-phenylahistin]
MIC (Aspergillus fumigatus; A. fumigatus isolate #1): > 16 µg/mL | MFC (Aspergillus fumigatus; A. fumigatus isolate #2): 0.125 µg/mL (≈ 0.369 µM) | MIC (Aspergillus fumigatus; A. fumigatus isolate #2): < 0.03 µg/mL | MIC (Candida albicans): > 32 µg/mL | MIC (Candida glabrata): > 32 µg/mL | IC50 ([3]; Homo sapiens, MES-SA/Dx5, MES-SA/DX5 Resistant, CsA Pretreat, Studies II-III in separate lines): 622 nM | IC50 ([3]; Homo sapiens, MES-SA/Dx5, MES-SA/DX5 Resistant, No CsA, Studies I-III in separate lines): 825 nM | IC50 ([3]; MES-SA/DX5 Resistant, No CsA, Studies I-III in separate lines): 694 nM | potency in the resistant MES-SA/DX5 line vs the sensitive line ([3]; in words): only slightly reduced | IC50 ([4]; Homo sapiens, MES-SA, CsA Pretreat, Studies II-III in separate lines): 162 nM | IC50 ([4]; Homo sapiens, MES-SA, No CsA, Studies I-III in separate lines): 144 nM | IC50 ([4]; No CsA, Studies I-III in separate lines): 122 nM | IC50 ([5]; Mus musculus): 736 nM | % Cytotoxicity Mean ([5]; maximum cytotoxic effect): 74% | IC50 ([6]; Homo sapiens): 174 nM | % Cytotoxicity Mean ([6]; maximum cytotoxic effect): 59.5% | IC50 [7]: > 20000 nM | IC50 ([8]; Homo sapiens): > 20000 nM | % Cytotoxicity Mean ([8]; maximum cytotoxic effect): 37% | % Cytotoxicity Mean (HT29 (human colon tumor); maximum cytotoxic effect): 88% | IC50 (HT29 (human colon tumor); Homo sapiens): 420 nM | IC50 ([9]; Homo sapiens): 387 nM | % Cytotoxicity Mean ([9]; maximum cytotoxic effect): 65.5% | cytotoxicity at 48 h [10]: 45% | IC50 ([11]; Homo sapiens): 384 nM | % Cytotoxicity Mean ([11]; maximum cytotoxic effect): 65% | IC50 [12]: 255 nM | effect on estimated tumor growth (MCF-7 human breast tumor): significant potentiation of taxotere | microtubule depolymerization in HuVEC cells (HuVEC): induced microtubule depolymerization | Comments (combination with CPT-11) (HT-29 human colon tumor; NPI compound + CPT-11 100 ip qwx3, study and dose as in the line): Synergy | NPI-Compound Result TGI % (HT-29 human colon tumor; Study 2139, monotherapy 30 mg/kg ip q3dx5): No Effect | Combination Results TGI % (HT-29 human colon tumor; Study 2139, t-butyl-phenylahistin 30 mg/kg ip q3dx5 + CPT-11 100 ip qwx3): 77.7 *, # % | Exceed NCI Criterion (TGI ≧ 58%) (HT-29 human colon tumor; which treatment group exceeds the criterion, NPI compound, CPT-11 100 ip qwx3 or combination, study and dose as in the line): Combination | IC50 [13]: 175 nM
